In patent US8809350B2, “Purine and pyrimidine CDK inhibitors and their use for the treatment of autoimmune diseases” (priority 2004, dated 2014):

Key:
[1] = Water intake of NZB/W F1 lupus mice; type: in vivo; design: Water intake: unit not given beside the values; conditions: Example 1; for Water intake: mean ± SE
[2] = Body weight of NZB/W F1 lupus mice; conditions: Example 1; for Body Weight: mean ± SE
[3] = Food intake of NZB/W F1 lupus mice; type: in vivo; conditions: Example 1; for Food Intake: mean ± SE
[4] = test system: anti-dsDNA autoantibodies; test: Serum anti-DNA antibodies in NZB/W F1 lupus mice; conditions: Example 1; for Serum anti-DNA antibodies: mean ± SE
[5] = Serum transaminase (AST, ALT) in NZB/W F1 lupus mice; conditions: Example 1; for Serum Transaminase ALT / Serum Transaminase AST: mean ± SE
[6] = 100 mg/kg daily by gavage from 2 months (preventive), age 2 months
[7] = 100 mg/kg daily by gavage from 2 months (preventive), age 2.5 months
[8] = 100 mg/kg daily by gavage from 2 months (preventive), age 3 months
[9] = 100 mg/kg daily by gavage from 2 months (preventive), age 3.5 months
[10] = 100 mg/kg daily by gavage from 2 months (preventive), age 4 months
[11] = 100 mg/kg daily by gavage from 2 months (preventive), age 4.5 months
[12] = 100 mg/kg daily by gavage from 2 months (preventive), age 5 months
[13] = 200 mg/kg daily by gavage from 2 months (preventive), age 2 months
[14] = 200 mg/kg daily by gavage from 2 months (preventive), age 2.5 months
[15] = 200 mg/kg daily by gavage from 2 months (preventive), age 3 months
[16] = 200 mg/kg daily by gavage from 2 months (preventive), age 3.5 months
[17] = 200 mg/kg daily by gavage from 2 months (preventive), age 5 months
[18] = every two weeks from 2 to 5 months
[19] = 100 mg/kg therapeutic (from 5 months)

CC[C@H](CO)Nc1nc(NCc2ccccc2)c2ncn(C(C)C)c2n1 [CYC202, 2-(1-R-hydroxymethylpropylamino)-6-benzylamino-9-isopropylpurine]
Water intake [1, 6]: 6.64 ± 0.29 | Water intake [1, 7]: 5.14 ± 0.40 | Water intake [1, 8]: 4.21 ± 0.28 | Water intake [1, 9]: 5.00 ± 0.28 | Water intake [1, 10]: 5.57 ± 0.20 | Water intake [1, 11]: 4.43 ± 0.20 | Water intake [1, 12]: 3.93 ± 0.22 | Water intake [1, 13]: 5.31 ± 0.26 | Water intake [1, 14]: 4.77 ± 0.20 | Water intake [1, 15]: 4.92 ± 0.18 | Water intake [1, 16]: 5.08 ± 0.21 | Water intake [1, 17]: 4.23 ± 0.28 | Water intake versus vehicle [1, 18]: comparable | Body Weight [2, 6]: 27.93 ± 0.62 | Body Weight [2, 8]: 27.86 ± 0.52 | Body Weight [2, 10]: 28.07 ± 0.57 | Body Weight [2, 12]: 28.64 ± 0.57 | Body Weight ([2]; 100 mg/kg daily by gavage from 2 months (preventive), age 6 months): 30.23 ± 0.67 | Body Weight ([2]; 100 mg/kg daily by gavage from 2 months (preventive), age 7 months): 31.50 ± 0.87 | Body Weight ([2]; 100 mg/kg daily by gavage from 2 months (preventive), age 8 months): 30.78 ± 0.91 | Body Weight ([2]; 100 mg/kg daily by gavage from 5 months (therapeutic), age 2 months): 26.71 ± 0.74 | Body Weight ([2]; 100 mg/kg daily by gavage from 5 months (therapeutic), age 3 months): 28.14 ± 0.69 | Body Weight ([2]; 100 mg/kg daily by gavage from 5 months (therapeutic), age 4 months): 29.43 ± 1.01 | Body Weight ([2]; 100 mg/kg daily by gavage from 5 months (therapeutic), age 5 months): 29.71 ± 0.82 | Body Weight ([2]; 100 mg/kg daily by gavage from 5 months (therapeutic), age 6 months): 31.45 ± 0.96 | Body Weight ([2]; 100 mg/kg daily by gavage from 5 months (therapeutic), age 7 months): 30.80 ± 1.69 | Body Weight ([2]; 100 mg/kg daily by gavage from 5 months (therapeutic), age 8 months): 29.80 ± 1.46 | Body Weight [2, 13]: 27.85 ± 0.72 | Body Weight [2, 15]: 28.00 ± 0.68 | Body Weight [2, 17]: 28.92 ± 0.35 | Body Weight ([2]; 200 mg/kg daily by gavage from 2 months (preventive), age 6 months): 31.58 ± 0.43 | Body Weight ([2]; 200 mg/kg daily by gavage from 2 months (preventive), age 7 months): 30.82 ± 0.35 | Body Weight ([2]; 200 mg/kg daily by gavage from 2 months (preventive), age 8 months): 31.60 ± 0.52 | Body weight versus other experimental groups ([2]; all CYC202 groups): No difference | Food Intake [3, 6]: 3.69 ± 0.33 | Food Intake [3, 7]: 3.77 ± 0.23 | Food Intake [3, 8]: 3.92 ± 0.18 | Food Intake [3, 9]: 4.08 ± 0.18 | Food Intake [3, 10]: 3.92 ± 0.26 | Food Intake [3, 11]: 3.85 ± 0.30 | Food Intake [3, 12]: 3.85 ± 0.22 | Food Intake [3, 13]: 3.54 ± 0.29 | Food Intake [3, 14]: 4.08 ± 0.08 | Food Intake [3, 15]: 4.00 ± 0.11 | Food Intake [3, 16]: 4.08 ± 0.21 | Food Intake ([3]; 200 mg/kg daily by gavage from 2 months (preventive), age 4 months): 4.00 ± 0.16 | Food Intake ([3]; 200 mg/kg daily by gavage from 2 months (preventive), age 4.5 months): 4.00 ± 0.18 | Food Intake [3, 17]: 3.92 ± 0.29 | Food intake versus vehicle [3, 18]: comparable | Serum anti-DNA antibodies ([4]; 100 mg/kg preventive, 5 months): 4.04 ± 0.76 U/ml | Serum anti-DNA antibodies ([4]; 100 mg/kg preventive, 8 months): 76.55 ± 21.40 U/ml | Serum anti-DNA antibodies ([4]; 200 mg/kg preventive, 5 months): 24.20 ± 6.52 U/ml | Serum anti-DNA antibodies ([4]; 200 mg/kg preventive, 8 months): 73.39 ± 21.13 U/ml | Anti-DNA antibody levels versus vehicle ([4]; treated from 2 months, both doses, at 5 or 8 months of age): significantly lower than vehicle | Serum Transaminase ALT [5, 19]: 36.00 ± 2.45 IU/L | Serum Transaminase AST [5, 19]: 74.40 ± 1.72 IU/L | Serum transaminase levels (ALT and AST) ([5]; 200 mg/kg from 2 months or 100 mg/kg from 5 months, similar to control mice): not modified by treatments | Serum Transaminase ALT ([5]; 200 mg/kg preventive): 36.44 ± 4.04 IU/L | Serum Transaminase AST ([5]; 200 mg/kg preventive): 62.89 ± 4.70 IU/L
